Key:
ALK4 = conditions: cited from earlier work
ALK1 = ALK1 (Homo sapiens, UniProt P37023); conditions: cited from earlier work
ALK2 = biological target: T1, ALK2 (Homo sapiens, UniProt Q04771); conditions: cited from earlier work
T1 sequence (Q04771 21-509): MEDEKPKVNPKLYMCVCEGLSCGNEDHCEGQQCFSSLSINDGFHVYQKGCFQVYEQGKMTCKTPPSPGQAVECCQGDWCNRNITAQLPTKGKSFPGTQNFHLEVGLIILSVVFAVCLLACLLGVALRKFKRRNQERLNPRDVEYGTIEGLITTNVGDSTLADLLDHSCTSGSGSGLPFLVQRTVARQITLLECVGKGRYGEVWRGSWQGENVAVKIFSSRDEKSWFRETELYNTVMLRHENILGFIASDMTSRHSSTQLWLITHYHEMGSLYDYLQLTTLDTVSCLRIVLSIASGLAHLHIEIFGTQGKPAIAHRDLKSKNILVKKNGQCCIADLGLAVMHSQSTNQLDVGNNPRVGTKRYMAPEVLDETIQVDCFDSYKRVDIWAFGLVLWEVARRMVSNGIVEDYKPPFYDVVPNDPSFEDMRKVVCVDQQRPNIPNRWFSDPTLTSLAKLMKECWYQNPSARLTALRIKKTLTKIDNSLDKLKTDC

ALK3 = ALK3 (Homo sapiens, UniProt P36894); conditions: cited from earlier work
Sequence of ALK3 (P36894 24-532): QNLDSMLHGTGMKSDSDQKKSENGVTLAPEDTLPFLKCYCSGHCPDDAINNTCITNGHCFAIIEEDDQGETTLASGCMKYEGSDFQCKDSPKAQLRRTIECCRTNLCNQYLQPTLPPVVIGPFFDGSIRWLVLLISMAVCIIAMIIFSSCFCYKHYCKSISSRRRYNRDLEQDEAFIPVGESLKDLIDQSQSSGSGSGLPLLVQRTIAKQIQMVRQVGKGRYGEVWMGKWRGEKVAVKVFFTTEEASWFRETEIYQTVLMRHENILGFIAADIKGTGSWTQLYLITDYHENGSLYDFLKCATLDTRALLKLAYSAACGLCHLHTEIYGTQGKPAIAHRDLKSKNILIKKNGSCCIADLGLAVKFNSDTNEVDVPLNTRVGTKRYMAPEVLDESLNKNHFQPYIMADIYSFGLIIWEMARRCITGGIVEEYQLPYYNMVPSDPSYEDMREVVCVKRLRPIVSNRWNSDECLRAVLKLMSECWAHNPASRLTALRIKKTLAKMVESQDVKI

ALK6 = ALK6 (Homo sapiens, UniProt O00238); conditions: cited from earlier work
Sequence of ALK6 (O00238 14-502): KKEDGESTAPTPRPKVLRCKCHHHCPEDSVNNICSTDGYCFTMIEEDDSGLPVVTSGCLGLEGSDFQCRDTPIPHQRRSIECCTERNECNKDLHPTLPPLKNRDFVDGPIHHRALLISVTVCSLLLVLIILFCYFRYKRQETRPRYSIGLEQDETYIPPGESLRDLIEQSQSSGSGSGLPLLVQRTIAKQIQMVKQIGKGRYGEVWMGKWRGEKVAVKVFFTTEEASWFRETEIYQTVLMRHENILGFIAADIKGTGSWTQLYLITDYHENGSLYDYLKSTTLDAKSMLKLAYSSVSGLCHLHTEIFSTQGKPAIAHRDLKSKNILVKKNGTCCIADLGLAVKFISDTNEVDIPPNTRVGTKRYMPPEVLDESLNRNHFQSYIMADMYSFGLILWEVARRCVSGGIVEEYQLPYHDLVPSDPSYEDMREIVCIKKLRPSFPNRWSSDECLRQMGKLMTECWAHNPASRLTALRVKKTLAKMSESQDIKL

TGF-β-induced EMT = conditions: via the inhibition of Smad2 phosphorylation; cited from earlier work
human urine cells (HUC) = assay: Secondary induction, cell morphology by phase contrast microscopy; type: cell-based; conditions: after Example 2 primary induction; 330 nm Indolactam V, four days
Description: HUC-M-35 P5 cells were prepared using the primary induction protocol described in Example 2. The cells were then cultured in a secondary induction medium containing DMEM, […] Indolactam V, 1×2 mM L-glutamine (Life Technologies, Cat No. 25030-081), and 1×B27 (Life Technologies, Cat No. 17504044) and p/s as detailed above for four days. The morphology of the resultant cells was examined by phase contrast microscopy.
HUC-M-35 P5 cells were induced using the primary induction protocol described in Example 2. […] The morphology of the resultant cells was assessed by phase contrast microscopy.

Sequence of ALK1 (P37023 22-503, species assumed): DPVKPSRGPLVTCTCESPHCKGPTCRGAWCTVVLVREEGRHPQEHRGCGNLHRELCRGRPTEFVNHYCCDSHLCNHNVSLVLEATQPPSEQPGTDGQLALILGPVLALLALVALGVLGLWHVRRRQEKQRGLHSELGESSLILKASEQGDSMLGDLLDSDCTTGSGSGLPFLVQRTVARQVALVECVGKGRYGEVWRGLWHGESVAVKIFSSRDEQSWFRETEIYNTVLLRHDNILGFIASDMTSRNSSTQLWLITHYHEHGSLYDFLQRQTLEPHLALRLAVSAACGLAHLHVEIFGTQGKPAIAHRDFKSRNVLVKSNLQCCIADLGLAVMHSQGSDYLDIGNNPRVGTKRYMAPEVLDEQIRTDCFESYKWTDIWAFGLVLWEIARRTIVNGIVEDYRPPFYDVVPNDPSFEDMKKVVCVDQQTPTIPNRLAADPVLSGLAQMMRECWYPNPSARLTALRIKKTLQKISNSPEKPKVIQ

| SMILES | IC50 (ALK4) [nM] | inhibition of ALK1 (ALK1) | inhibition of ALK2 (ALK2) | inhibition of ALK3 (ALK3) | inhibition of ALK6 (ALK6) | inhibition of TGF-β-induced EMT (TGF-β-induced EMT) | cell morphology following secondary induction (human urine cells (HUC)) |
| --- | --- | --- | --- | --- | --- | --- | --- |
| Cc1cccc(-c2nn(C(=S)Nc3ccccc3)cc2-c2ccnc3ccccc23)n1 [A83-01, 3-(6-Methyl-2-pyridinyl)-N-phenyl-4-(4-quinolinyl)-1H-pyrazole-1-carbothioamide] | 12 | weakly inhibits | weakly inhibits | weakly inhibits | weakly inhibits | inhibit |  |
| CC(C)[C@H]1C(=O)N[C@H](CO)Cc2c[nH]c3cccc(c23)N1C [Indolactam V, (2S,5S)-1,2,4,5,6,8-Hexahydro-5-(hydroxymethyl)-1-methyl-2-(1-methylethyl)-3H-pyrrolo[4,3,2-gh]-1,4-benzodiazonin-3-one] |  |  |  |  |  |  | some cells appeared to have an islet cell morphology |
